In ChEMBL document CHEMBL1201862, “PubChem BioAssay data set” (2004):
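In this assay, cells in 96-well plates receive the compound at five concentrations for 48 hours. Endpoints are linearly interpolated between the surrounding concentrations. GI50: concentration for 50% inhibition of growth.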 The source made the active and inactive calls. No stated cut-off is given here; in the data, active = GI50 up to about 1.1 µM and inactive = higher.

Columns and labels:
Experiment in all cases: growth of human tumour cells (NCI), 48 h
SNB-75 = test system: SNB-75
KM12 = test system: KM12
HCT-15 = test system: HCT-15
M14 = test system: M14
Malme-3M = test system: Malme-3M
UACC-62 = test system: UACC-62
SF-539 = test system: SF-539
IGROV-1 = test system: IGROV-1
T47D = test system: T47D
UACC-257 = test system: UACC-257
COLO 205 = test system: COLO 205
NCI-H226 = test system: NCI-H226
SK-OV-3 = test system: SK-OV-3
ACHN = test system: ACHN
SF-268 = test system: SF-268
MCF7 = test system: MCF7
HOP-62 = test system: HOP-62
SN12C = test system: SN12C
OVCAR-4 = test system: OVCAR-4

| Structure (SMILES) | GI50 (SNB-75) | GI50 (KM12) | GI50 (HCT-15) [µM] | GI50 (M14) | GI50 (Malme-3M) | GI50 (UACC-62) | GI50 (SF-539) | GI50 (IGROV-1) | GI50 (T47D) | GI50 (UACC-257) | GI50 (COLO 205) | GI50 (NCI-H226) | GI50 (SK-OV-3) | GI50 (ACHN) | GI50 (SF-268) | GI50 (MCF7) | GI50 (HOP-62) | GI50 (SN12C) | GI50 (OVCAR-4) |
| --- | --- | --- | --- | --- | --- | --- | --- | --- | --- | --- | --- | --- | --- | --- | --- | --- | --- | --- | --- |
| CN1CCN(Cc2cc3c(nn2)-c2ccccc2C3=O)CC1 | > 100 µM (inactive) | 59.2 µM (inactive) | 26.2 | 31.2 µM (inactive) | 19.1 µM (inactive) | 44.4 µM (inactive) | 72.9 µM (inactive) | 38.5 µM (inactive) | 49 µM (inactive) | 19.2 µM (inactive) | 17.7 µM (inactive) | > 100 µM (inactive) | > 100 µM (inactive) | 26.2 µM (inactive) | > 100 µM (inactive) | 30.8 µM (inactive) | – | – | – |
| CC(=O)C(=[N+]=[N-])C(=O)N(C)CCC#N | 0.118 µM (active) | > 10 µM (inactive) | > 10 | > 10 µM (inactive) | > 10 µM (inactive) | 3.58 µM (inactive) | > 10 µM (inactive) | > 10 µM (inactive) | > 10 µM (inactive) | > 10 µM (inactive) | – | > 10 µM (inactive) | > 10 µM (inactive) | > 10 µM (inactive) | > 10 µM (inactive) | > 10 µM (inactive) | > 10 µM (inactive) | > 10 µM (inactive) | – |
| Nc1nc2c(C(=O)O)c3ccc([N+](=O)[O-])cc3c(=O)n2c2ccccc12 | 3.44 µM (inactive) | 25.8 µM (inactive) | 22.9 | 21.4 µM (inactive) | 40 µM (inactive) | 28.1 µM (inactive) | – | 26.9 µM (inactive) | 20.4 µM (inactive) | – | 34.8 µM (inactive) | 21.2 µM (inactive) | 21 µM (inactive) | 33.1 µM (inactive) | 33.8 µM (inactive) | 16.2 µM (inactive) | 22.5 µM (inactive) | 18 µM (inactive) | 31 µM (inactive) |
| CC(C(=O)N1C(=O)N(C(=O)C(C)C(O)c2ccccc2)C(c2ccccc2)C1c1ccccc1)C(O)c1ccccc1 (stereo not drawn) | 3.9 µM (inactive) | 3.34 µM (inactive) | 15.5 | 10.5 µM (inactive) | 12.2 µM (inactive) | 10.5 µM (inactive) | 6.25 µM (inactive) | 12.7 µM (inactive) | 6.47 µM (inactive) | – | 13.3 µM (inactive) | 12.4 µM (inactive) | – | 6.7 µM (inactive) | 13.4 µM (inactive) | 4.43 µM (inactive) | 12.3 µM (inactive) | 12.9 µM (inactive) | 13.4 µM (inactive) |
| COc1cc(O)c2c(=O)c3ccccc3n(C)c2c1 | – | > 100 µM (inactive) | 43.5 | > 100 µM (inactive) | > 100 µM (inactive) | 24.6 µM (inactive) | 28.4 µM (inactive) | > 100 µM (inactive) | > 100 µM (inactive) | > 100 µM (inactive) | > 100 µM (inactive) | > 100 µM (inactive) | 26.8 µM (inactive) | 14 µM (inactive) | 53.7 µM (inactive) | > 100 µM (inactive) | 15.9 µM (inactive) | > 100 µM (inactive) | 89.3 µM (inactive) |
| CCOC1=NC(C(F)(F)F)(C(F)(F)F)N=C(N2CCCCC2)O1 | > 100 µM (inactive) | > 100 µM (inactive) | > 100 | > 100 µM (inactive) | > 100 µM (inactive) | > 100 µM (inactive) | > 100 µM (inactive) | > 100 µM (inactive) | > 100 µM (inactive) | > 100 µM (inactive) | > 100 µM (inactive) | > 100 µM (inactive) | – | > 100 µM (inactive) | > 100 µM (inactive) | > 100 µM (inactive) | > 100 µM (inactive) | > 100 µM (inactive) | > 100 µM (inactive) |
